Source: patent US10188858B2, “Method and device for treating a tissue with a high frequency electromagnetic field” (University of Cincinnati, priority 2013, dated 2019)

Experiments:
MEK = assay: Total and phosphorylated MEK levels (sandwich ELISA) with inhibitors; format: cell-based, C57 mice
Source text: (§1) Murine microvascular endothelial cells were isolated from the lungs of C57 mice (Jackson Laboratory, Maine, USA) as described previously. Cells were doubly sorted using PECAM-1- and ICAM-2-conjugated magnetic beads (Invitrogen Corporation, CA, USA) and cultured in medium M199 (HyClone, UT, USA) supplemented with 10% fetal bovine serum (FBS; Atlanta Biologicals, GA, USA), 1% antibiotic/antimycotic (AB/AM; Atlanta Biologicals, USA), 1% heparin (Sigma-Aldrich, MO, USA) and 1Ong/mL endothelial growth factor supplement (Sigma-Aldrich, MO, USA). Cells from passages 4-9 were used. All experiments were conducted in the culture medium (medium M199, 10% FBS, 1% antibiotic/antimycotic and 1% heparin) without additional growth factor supplementation.
(§2) Capillary morphogenesis, and MAPK pathways activation were quantified following 12 hours of EF exposure, and the analyses of VEGF expression, cell proliferation and apoptosis were conducted up to 24 hours of EF exposure. The experimental groups included endothelial cells exposed to high frequency EF, low frequency EF and a group not exposed to EF.
(§3) After EF exposure, cells were lysed using buffer containing 20 mM Tris-HCl, 150 mM NaCl, 1 mM Na2EDTA, 1 mM EGTA, 1% Triton, 2.5 mM sodium pyrophosphate, 1 mM beta-glycerophosphate, 1 mM Na3VO4, 1 μg/ml leupeptin and 1 mM phenylmethylsulfonyl fluoride (PMSF). The total protein concentration in each sample lysate was determined using CoomassiePlus Assay Kit (Thermo Fisher Scientific, IL, USA). 10 μg of total protein was used for all MAPK pathway ELISAs. The total and phosphorylated levels of ERK, MEK, p38 and JNK proteins were quantified using appropriate sandwich ELISA kits (Cell Signaling Technology, MA, USA). MEK-cRaf complex levels and free (unbound) MEK levels were quantified according to previously described protocols with modifications. The total MEK levels are presented in optical densities and phosphorylated MEK, MEK-cRaf and pMEK-cRaf levels are normalized to total MEK levels. For negative control, β-actin (Invitrogen, USA) was immunoprecipitated from the lysate and subjected to ELISAs. All ELISA assays were performed in duplicates or triplicates, with all experiments repeated at least N=6 times.
To determine the role of VEGF signaling in EF-mediated angiogenic responses, experiments were repeated in the presence of 0.1 μg/mL soluble anti-mouse VEGF blocking antibody (R&D Systems, MN, USA), or 5 μM SU5416 (Sigma-Aldrich, MO, USA), a specific pharmacological VEGFR2inhibitor, or in the presence of 10 μM U0126 MEK inhibitor (Sigma-Aldrich, MO, USA). […] To examine the role of PI3K, Ca^2+ and eNOS signaling in EF-mediated MEK activation, cells were treated with 10 μM LY294002 (PI3K inhibitor), 10 μM BAPTA (Ca^2+ chelator), or 200 μM Nω-Nitro-L-arginine methyl ester hydrochloride (L-NAME, eNOS inhibitor),respectively, and the total and phosphorylated MEK levels were measured using ELISA. All inhibitors were added to the culture supernatant and pre-incubated for one hour to equilibrate respective target blocking prior to EF exposure. All analyses were done in duplicates/triplicates, and all inhibitor experiments were repeated at least N=3 times.

VEGF = VEGF protein release by endothelial cells (ELISA) with inhibitors; format: cell-based, C57 mice
Source text: Cells from passages 4-9 were used. […] VEGF and PIGF are two major angiogenic cytokines acting through VEGF receptors pathway. VEGF binds to both VEGFR1 and VEGFR2 receptors, although signals through VEGFR2. In contrast, PIGF which only binds to and signals through VEGFR1. To determine the effect of EF on the VEGF and PIGF protein release by endothelial cells, culture medium samples (at least N=6 separate experiments) were used to measure VEGF and PIGF protein levels using appropriate ELISA kits (R&D Systems, MN, USA).

[1] = system: Murine microvascular endothelial cells; assay: In vitro capillary morphogenesis (nanofiber-based angiogenesis assay) with inhibitors; format: cell-based, C57 mice
Description: Cells from passages 4-9 were used. […] Capillary morphogenesis was assessed using nanofiber-based angiogenesis assay previously developed in the lab, in which endothelial cells seeded on RAD16-II peptide nanofiber hydrogel (SynBioSci Corporation, CA, USA) undergo spontaneous capillary morphogenesis with clearly identifiable lumens in the absence of external angiogenic growth factors. Endothelial cells were seeded on the surface of 1% (w/v) hydrogel in cell culture inserts (Millipore, MA, USA) at a seeding density of 10^5 cells/cm^2. Cells seeded on 5% gelatin-coated inserts were used as a negative control. Cells were labeled with CellTracker dye (Invitrogen, USA) before seeding or with Phalloidin-TRITC (Sigma Aldrich, St Louis, Mo., USA). After EF exposure, samples (at least N=10 separate EF exposure experiments per group) were fixed with 2% formaldehyde, and images of the sample surface (n=5 per sample) were captured at 20× magnification using an inverted fluorescent microscope (Olympus IX81; Olympus, Pa., USA). The characteristic size of capillary-like networks was determined using correlation analysis and custom-written MATLAB code (The Math Works, MA, USA).

MEK-cRaf complex = conditions: high frequency EF in the presence of 10 μM U0126, compared to low frequency or no-EF groups
Source text: as §1, §2
as §3, with “All ELISA assays were performed in duplicates or triplicates, with all experiments repeated at least N=6 times.” left out

[2] = 10 μM U0126, all experimental groups, compared to no inhibitor controls
[3] = 10 μM U0126, high frequency EF vs low frequency EF and no-EF groups

**Q.** Which results are given for O=C(O)CN(CC(=O)O)c1ccccc1OCCOc1ccccc1N(CC(=O)O)CC(=O)O [BAPTA]?
**A.** MEK phosphorylation levels (MEK; 10 μM BAPTA, high frequency EF and no-EF groups): significantly reduced; phosphorylated MEK levels in high frequency EF group compared to no-EF controls (MEK; in the presence of 10 μM BAPTA): lower

**Q.** Which “EF-induced increase in pMEK” value (MEK; 200 μM L-NAME, high frequency EF) does the source give for COC(=O)[C@@H](N)CCCNC(=N)N[N+](=O)[O-].Cl [L-NAME, Nω-Nitro-L-arginine methyl ester hydrochloride] here?
**A.** abolished

**Q.** What about the “base pMEK levels” value (MEK; 200 μM L-NAME, no-EF controls) of the same compound?
**A.** did not affect

**Q.** For Cc1cc(C)c(/C=C2\C(=O)Nc3ccccc32)[nH]1 [SU5416], which VEGF release (VEGF; 5 μM SU5416, all experimental groups, including no-EF controls) is on record?
**A.** significantly reduced

**Q.** And the “high frequency EF-induced MEK phosphorylation” value (MEK; 5 μM SU5416, 7.5 GHz EF vs low frequency and no-EF controls)?
**A.** did not block

**Q.** And the capillary morphogenesis ([1]; 5 μM SU5416, all experimental groups, including no-EF controls, 12 hours)?
**A.** completely abolished

**Q.** How did the “VEGF release by endothelial cells” value (VEGF; [2]) turn out when N#CC(=C(/N)Sc1ccccc1N)/C(C#N)=C(\N)Sc1ccccc1N [U0126] was run?
**A.** significantly reduced

**Q.** What about the “effect of high frequency EF on VEGF release” value (VEGF; [3]) of the same compound?
**A.** effectively reversed

**Q.** And the “total concentration of MEK” value (MEK; presence of 10 μM U0126)?
**A.** did not affect

**Q.** And the “free MEK levels” value (MEK-cRaf complex)?
**A.** increased

**Q.** What about the “phosphorylation of MEK-cRaf complex (pMEK-cRaf)” value (MEK-cRaf complex) of the same compound?
**A.** reduced

**Q.** What about the “protein levels of MEK-cRaf complex” value (MEK-cRaf complex) of the same compound?
**A.** reduced

**Q.** What about the “capillary morphogenesis (network size)” value [1, 2] of the same compound?
**A.** significantly reduced

**Q.** And the “effect of high frequency EF on capillary morphogenesis” value [1, 3]?
**A.** effectively reversed
